Consider four compounds from ChEMBL document CHEMBL1131812, “Novel conformationally restricted tetracyclic analogs of delta8-tetrahydrocannabinol” (Bioorg Med Chem Lett, 1999).

In one assay the target is Cannabinoid receptor 1 (Rattus norvegicus, UniProt P20272). Nature of the assay: Binding affinity towards cannabinoid receptor 1 in rat forebrain membranes. In kind it is cell membranes.
For the next assay, the target named is Cannabinoid receptor 2 (Mus musculus, UniProt P47936). In words: Binding affinity towards Cannabinoid receptor 2 in mouse spleen membranes. In kind it is cell membranes.

Each structure is given as a SMILES string.

Cannabinoid receptor 2, sequence (P47936 whole entry): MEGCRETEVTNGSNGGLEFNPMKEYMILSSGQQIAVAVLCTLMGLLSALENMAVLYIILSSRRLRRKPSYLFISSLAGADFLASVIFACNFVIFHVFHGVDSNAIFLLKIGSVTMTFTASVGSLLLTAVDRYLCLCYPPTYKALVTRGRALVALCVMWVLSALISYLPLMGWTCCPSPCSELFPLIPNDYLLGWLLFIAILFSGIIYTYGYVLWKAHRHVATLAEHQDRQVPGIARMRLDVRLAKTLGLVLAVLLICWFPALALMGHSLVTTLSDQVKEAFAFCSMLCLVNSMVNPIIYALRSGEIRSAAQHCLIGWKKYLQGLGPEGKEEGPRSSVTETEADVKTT
Cannabinoid receptor 1, sequence (P20272 whole entry): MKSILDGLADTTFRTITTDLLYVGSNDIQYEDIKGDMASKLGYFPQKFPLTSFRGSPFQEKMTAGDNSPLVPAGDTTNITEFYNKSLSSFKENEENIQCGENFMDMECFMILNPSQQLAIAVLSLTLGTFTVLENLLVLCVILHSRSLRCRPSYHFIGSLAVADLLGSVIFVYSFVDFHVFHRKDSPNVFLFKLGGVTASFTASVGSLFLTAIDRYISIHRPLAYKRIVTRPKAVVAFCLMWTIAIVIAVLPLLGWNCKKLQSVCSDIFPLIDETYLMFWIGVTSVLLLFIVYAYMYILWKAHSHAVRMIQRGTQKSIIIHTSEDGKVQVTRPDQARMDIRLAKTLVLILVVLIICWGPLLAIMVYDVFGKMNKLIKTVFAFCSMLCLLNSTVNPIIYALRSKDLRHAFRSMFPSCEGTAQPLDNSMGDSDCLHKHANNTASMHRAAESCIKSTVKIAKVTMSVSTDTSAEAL

Turning to `CCCCCCC1CCCc2c1cc1c(c2O)[C@@H]2CC(C)=CC[C@H]2C(C)(C)O1` (stereo partly drawn), the Ki (commonly a dissociation constant, usually derived from enzyme kinetics or from competition with a known ligand) at Cannabinoid receptor 1 amounted to 22.3 nM; at Cannabinoid receptor 2, 58.6 nM.

As for `CCCCCC1CCc2c(cc3c(c2O)[C@@H]2CC(C)=CC[C@H]2C(C)(C)O3)C1` (stereo partly drawn), the Ki at Cannabinoid receptor 1 was 402 nM; on Cannabinoid receptor 2, 162 nM.

Turning to `CCCCCCC1CCCc2c1cc(O)c1c2OC(C)(C)[C@@H]2CC=C(C)C[C@@H]12` (stereo partly drawn), the Ki at Cannabinoid receptor 1 came to 542 nM; on Cannabinoid receptor 2 it was 456 nM.

With `CCCCCCCc1cc(O)c2c(c1)OC(C)(C)[C@@H]1CC=C(C)C[C@@H]21`, the figures for the inhibition constant Ki on Cannabinoid receptor 1 and on Cannabinoid receptor 2 were 0.43 nM and 0.39 nM, respectively.
